Read-outs that look alike come from different tables or passages of the source.
Experiments:
[1] = system: Vero-B cells (ATCCCCL-81)
DENV (serotype 2) = experiment: microbe, parasite or virus in culture; type: cell-based, Dengue virus serotype 2; conditions: for EC50: read-out: Dengue EC50
YFV = experiment: microbe, parasite or virus in culture; type: cell-based, yellow fever virus; conditions: for EC50: read-out: Yellow fever EC50
in vitro [2] = conditions: chlorocebus aethiops
in vitro [3] = conditions: chlorocebus aethiops; remark: listed apart in the source

N^1-(4-fluorophenyl)-N^2-(2-(thiophen-3-yl)benzyl)phthalamide [7i]
CC50 [1]: 75 µM
Dengue SI (DENV (serotype 2)): 17
EC50 (DENV (serotype 2)): 3 µM
Yellow fever SI (YFV): 53
EC50 (YFV): 1.4 µM
CC50 (Vero-B cells (ECACC)): 50 µM

Cc1ccc(NC(=O)c2ccccc2C(=O)NCc2ccc(-c3ccsc3)cc2)cc1 [7l, N^1-(4-(thiophen-3-yl)benzyl)-N^2-(p-tolyl)phthalamide]
CC50 (in vitro [2]): > 117 µM
Dengue SI (DENV (serotype 2)): >8
EC50 (DENV (serotype 2); Dengue virus, Vero B): 13.8 µM
Yellow fever SI (YFV): >35
EC50 (YFV; Yellow fever virus, Vero B): 3.3 µM
CC50 (in vitro [3]; Yellow fever CC50): > 117 µM

Cc1ccc(NC(=O)c2nccnc2C(=O)Nc2ccccc2-c2cc(C)n[nH]2)cc1 [6n, N^2-(2-(3-methyl-1H-pyrazol-5-yl)phenyl)-N^3-(p-tolyl)pyrazine-2,3-di-carboxamide]
CC50 at 168 h (in vitro [2]): 24 µM
Dengue SI (DENV (serotype 2)): 7
fold reduced DENV inhibitory activity (DENV (serotype 2)): 7 fold
EC50 (DENV (serotype 2); Dengue virus, Vero B): 3.4 µM
Yellow fever SI (YFV): >34
EC50 (YFV; Yellow fever virus, Vero B): 0.4 µM
CC50 (in vitro [3]; Yellow fever CC50): > 13.6 µM

Cc1ccc(NC(=O)c2ccccc2C(=O)Nc2ccc(C)cc2-c2ccc(C)s2)cc1 [7e, N^1-(4-methyl-2-(5-methylthiophen-2-yl)phenyl)-N^2-(p-tolyl)phthalamide]
CC50 (in vitro [2]): > 114 µM
Dengue SI (DENV (serotype 2)): >57
EC50 (DENV (serotype 2); Dengue virus, Vero B): 2 µM
Yellow fever SI (YFV): 3.4
EC50 (YFV; Yellow fever virus, Vero B): 6.8 µM
CC50 at 168 h (in vitro [3]; Yellow fever CC50): 23 µM

Cc1ccc(NC(=O)c2nccnc2C(=O)NCc2ccccc2-c2ccsc2)cc1 [6j, N^2-(2-(thiophen-3-yl)benzyl)-N^3-(p-tolyl)pyrazine-2,3-dicarboxamide]
CC50 at 168 h (in vitro [2]): 48 µM
Dengue SI (DENV (serotype 2)): 1
EC50 (DENV (serotype 2); Dengue virus, Vero B): > 48 µM
Yellow fever SI (YFV): 14
EC50 (YFV): 5.4 µM
CC50 at 168 h (in vitro [3]; Yellow fever CC50): 75 µM

Cc1ccc(NC(=O)c2ccccc2NC(=O)c2ccc(F)cc2)c(-c2ccc(C)s2)c1 [13b, 2-(4-fluorobenzamido)-N-(4-methyl-2-(5-methylthiophen-2-yl)phenyl)benzamide]
CC50 (in vitro [2]): > 113 µM
Dengue SI (DENV (serotype 2)): >35
EC50 (DENV (serotype 2); Dengue virus, Vero B): 3.2 µM
Yellow fever SI (YFV): 1
EC50 (YFV; Yellow fever virus, Vero B): > 113 µM
CC50 (in vitro [3]; Yellow fever CC50): > 113 µM
CC50 (in vitro [3]; Yellow fever CC50 (visual)): 12.5 µM

O=C(NCc1ccc(-c2ccsc2)cc1)c1nccnc1C(=O)Nc1ccc(F)cc1 [6k, N^2-(4-fluorophenyl)-N^3-(4-(thiophen-3-yl)benzyl)pyrazine-2,3-dicarboxamide]
CC50 (in vitro [2]): > 116 µM
Dengue SI (DENV (serotype 2)): 1
EC50 (DENV (serotype 2); Dengue virus, Vero B): > 116 µM
Yellow fever SI (YFV): >6
EC50 (YFV; Yellow fever virus, Vero B): 18.5 µM
CC50 (in vitro [3]; Yellow fever CC50): > 116 µM

Cc1ccc(NC(=O)c2ccccc2NC(=O)c2ccc(F)cc2)c(-c2ccncc2)c1 [13c, 2-(4-fluorobenzamido)-N-(4-methyl-2-(pyridin-4-yl)phenyl)benzamide]
CC50 (in vitro [2]): > 117 µM
Dengue SI (DENV (serotype 2)): >7
EC50 (DENV (serotype 2); Dengue virus, Vero B): 17 µM
Yellow fever SI (YFV): 1
EC50 (YFV; Yellow fever virus, Vero B): > 117 µM
CC50 (in vitro [3]; Yellow fever CC50): > 50 µM
CC50 (in vitro [3]; Yellow fever CC50 (visual)): 30 µM

Cc1ccc(NC(=O)c2ccccc2NC(=O)c2ccc(F)cc2)c(-c2ccsc2)c1 [13a, 2-(4-fluorobenzamido)-N-(4-methyl-2-(thiophen-3-yl)phenyl)benzamide]
CC50 (in vitro [2]): > 116 µM
EC50 (DENV (serotype 2); Dengue virus, Vero B): > 116 µM
EC50 (YFV; Yellow fever virus, Vero B): > 116 µM
CC50 (in vitro [3]; Yellow fever CC50): > 116 µM

Cc1ccc(NC(=O)c2ccccc2NC(=O)c2ccc(F)cc2)c(-c2cccnc2)c1 [13d, 2-(4-fluorobenzamido)-N-(4-methyl-2-(pyridin-3-yl)phenyl)benzamide]
CC50 (in vitro [2]): > 117 µM
Dengue SI (DENV (serotype 2)): >5
EC50 (DENV (serotype 2); Dengue virus, Vero B): 23 µM
Yellow fever SI (YFV): 1
EC50 (YFV; Yellow fever virus, Vero B): > 117 µM
CC50 (in vitro [3]; Yellow fever CC50): > 50 µM
CC50 (in vitro [3]; Yellow fever CC50 (visual)): 39 µM

Cc1cc(-c2ccccc2NC(=O)c2nccnc2C(=O)Nc2ccc(F)cc2)[nH]n1 [6m, N^2-(4-fluorophenyl)-N^3-(2-(3-methyl-1H-pyrazol-5-yl)phenyl)pyrazine-2,3-dicarboxamide]
CC50 (in vitro [2]): > 120 µM
Dengue SI (DENV (serotype 2)): >55
fold increase of DENV inhibitory properties (DENV (serotype 2)): 12 fold
EC50 (DENV (serotype 2); Dengue virus, Vero B): 2.2 µM
Yellow fever SI (YFV): 10
EC50 (YFV; Yellow fever virus, Vero B): 7.8 µM
CC50 at 168 h (in vitro [3]; Yellow fever CC50): 77 µM

O=C(NCc1ccc(-c2ccsc2)cc1)c1ccccc1C(=O)Nc1ccc(F)cc1 [7k, N^1-(4-fluorophenyl)-N^2-(4-(thiophen-3-yl)benzyl)phthalamide]
CC50 (in vitro [2]): > 116 µM
Dengue SI (DENV (serotype 2)): >7
EC50 (DENV (serotype 2); Dengue virus, Vero B): 16 µM
Yellow fever SI (YFV): >16
EC50 (YFV; Yellow fever virus, Vero B): 7.4 µM
CC50 (in vitro [3]; Yellow fever CC50): > 117 µM
